Results reported in patent US20250257034A1, “INDOLE DERIVATIVES AS SEROTONERGIC AGENTS USEFUL FOR THE TREATMENT OF DISORDERS RELATED THERETO” (priority 2023, published 2025).

Legend:
[1] = Rat liver microsomes stability; assay type: in vitro ADME; settings: rat liver microsomes; for half-life at 2 μM / CLint scaled at 2 μM / microsomal CLint at 2 μM: male, pooled liver microsomes; for half-life at 2 μM / microsomal CLint at 2 μM: 2 μM compound, 0.5 mg/mL; for CLint scaled at 2 μM: read-out: Scaled-up CLint; for microsomal CLint at 2 μM: rat, read-out: CLint (μL/min/mg protein)
Method: (§1) The objective of this study was to estimate in vitro metabolic stability of exemplary compounds of Formula (I) or a pharmaceutically acceptable salt, solvate, and/or prodrug thereof in pooled human, male rat, and male mouse liver microsomes. The concentrations of compounds in reaction systems were evaluated by LC-MS/MS for estimating the stability in pooled human, male rat, and male mouse liver microsomes. The in vitro intrinsic clearances of test compounds were determined as well.
(§2) A master solution in the “Incubation Plate” containing phosphate buffer, ultra-pure H2O, MgCl2 solution and liver microsomes was made according to Table 33. The mixture was pre-warmed at 37° C. water bath for 5 minutes.
(§3) 40 μL of 10 mM nicotinamide adenine dinucleotide phosphate (NADPH) solution was added to each well. The final concentration of NADPH was 1 mM. The negative control samples were prepared by replacing NADPH with 40 μL of ultra-pure H2O. Samples were prepared in duplicate. Negative controls were prepared in singlet.
(§4) The reaction was started with the addition of 4 μL of 200 μM exemplary test compounds of the disclosure or control compounds to each master solution to get the final concentration of 2 μM. This study was performed in duplicate.
(§5) Aliquots of 50 μL were taken from the reaction solution at 0, 15, 30, 45, and 60 minutes. The reaction solutions were stopped by the addition of 4 volumes of cold methanol with IS (100 nM alprazolam, 200 nM imipramine, 200 nM labet alol and 2 μM ketoprofen). Samples were centrifuged at 3,220 g for 40 minutes. Aliquot of 90 μL of the supernatant was mixed with 90 μL of ultra-pure H2O and then was used for LC-MS/MS analysis.
(§6) LC/MS analysis was performed for all samples from this study using a Shimadzu liquid chromatograph separation system equipped with degasser DGU-20A5R; solvent delivery unit LC-30AD; system controller SIL-30AC; column oven CTO-30A; CTC Analytics HTC PAL System. Mass spectrometric analysis was performed using a Triple Quad™ 5500 instrument.
(§7) All calculations were carried out using Microsoft Excel. Peak area ratios of test compound to internal standard (listed in the below table) were determined from extracted ion chromatograms.
(§8) All calculations were carried out using Microsoft Excel. Peak areas were determined from extracted ion chromatograms. The slope value, k, was determined by linear regression of the natural logarithm of the remaining percentage of the parent drug vs. incubation time curve.
(§9) The in vitro half-life (in vitro t1/2) was determined from the slope value:
(§10) Conversion of the in vitro t1/2(min) into the in vitro intrinsic clearance (in vitro CLint, in μL/min/mg proteins) was done using the following equation (mean of duplicate determinations): […]
(§11) A master solution in the “Incubation Plate” containing phosphate buffer, ultra-pure H2O, MgCl2 solution and liver microsomes was made according to Table 63. The mixture was pre-warmed at 37° C. water bath for 5 minutes.
(§12) 40 μL of 10 mM NADPH solution was added to each well. The final concentration of NADPH was 1 mM. The negative control samples were prepared by replacing NADPH with 40 μL of ultra-pure H2O. Samples were prepared in duplicate. Negative controls were prepared in singlet.
(§13) Conversion of the in vitro t1/2(min) into the in vitro intrinsic clearance (in vitro C Lt, in μL/min/mg proteins) was done using the following equation (mean of duplicate determinations): […]

[2] = Human liver microsomes stability; assay type: in vitro ADME; settings: human liver microsomes; for half-life at 2 μM / microsomal CLint at 2 μM: 2 μM compound, 0.5 mg/mL; for microsomal CLint at 2 μM: read-out: CLint (μL/min/mg protein); for CLint scaled at 2 μM: read-out: Scaled-up CLint
Method: as §1, §2, §3, §4, §5, §6, §7, §8, §9, §10, §11, §12, §13

| Structure (SMILES) | half-life at 2 μM [1] [min] | CLint scaled at 2 μM [1] [mL/min/kg] | microsomal CLint at 2 μM [1] [µL/min/mg] | Predicted hepatic CL [1] [mL/min/kg] | Remaining Percentage (%) ([1]; With Cofactors, 0 min) | Remaining Percentage (%) ([1]; With Cofactors, 30 min) | Remaining Percentage (%) ([1]; With Cofactors, 60 min) | Remaining Percentage (%) ([1]; Without Cofactors, 0 min) | Remaining Percentage (%) ([1]; Without Cofactors, 30 min) | Remaining Percentage (%) ([1]; Without Cofactors, 60 min) | Predicted hepatic CL [2] [mL/min/kg] | half-life at 2 μM [2] [min] | microsomal CLint at 2 μM [2] [µL/min/mg] | Remaining Percentage (%) ([2]; With Cofactors, 0 min) | Remaining Percentage (%) ([2]; With Cofactors, 30 min) | Remaining Percentage (%) ([2]; With Cofactors, 60 min) | Remaining Percentage (%) ([2]; Without Cofactors, 0 min) | Remaining Percentage (%) ([2]; Without Cofactors, 30 min) | Remaining Percentage (%) ([2]; Without Cofactors, 60 min) | CLint scaled at 2 μM [2] [mL/min/kg] |
| --- | --- | --- | --- | --- | --- | --- | --- | --- | --- | --- | --- | --- | --- | --- | --- | --- | --- | --- | --- | --- |
| COc1ccc2[nH]cc(CCN3CC[C@@H](OC)C3)c2c1 [(R) I-66, (R)-5-methoxy-3-(2-(3-methoxypyrrolidin-1-yl)ethyl)-1H-indole] | 17.8 | 139 | 77.7 | 39.53 | 100.00 | 22.22 | 9.71 | 100.00 | 102.61 | 100.00 | 4.37 | 314 | 4.42 | 100.00 | 98.13 | 87.59 | 100.00 | 100.00 | 98.15 | 5.54 |
| COc1ccc2[nH]cc(CCN3CC[C@@H](OC(F)F)C3)c2c1 [(R) I-67, (R)-3-(2-(3-(Difluoromethoxy)pyrrolidin-1-yl)ethyl)-5-methoxy-1H-indole] | 10.5 | 236 | 132 | 44.73 | 100.00 | 15.35 | 1.93 | 100.00 | 91.21 | 80.30 | 15.34 | 29.3 | 47.3 | 100.00 | 47.22 | 24.23 | 100.00 | 79.21 | 71.91 | 59.3 |
| CN(CCOC(F)F)CCc1c[nH]c2ccccc12 [Compound I-130, N-(2-(1H-Indol-3-yl)ethyl)-2-(difluoromethoxy)-N-methylethan-1-amine] | < 4.51 | > 550 | > 307 | >50.17 | 100.00 | 0.00 | 0.00 | 100.00 | 105.21 | 103.65 | 18.58 | 9.6 | 144 | 100.00 | 11.46 | 0.75 | 100.00 | 99.47 | 94.15 | 181 |
